From patent US20190352358A1, “COMPOUNDS, COMPOSITIONS AND USES THEREOF FOR IMPROVEMENT OF BONE DISORDERS” (ALIZE PHARMA III SAS, priority 2017, published 2019)
Residues, ends and D or L forms follow the SMILES beside them. *: point of attachment. Stearoyl = CCCCCCCCCCCCCCCCCC(=O)*

How the values were obtained:
[1] = tested on: ovariectomized (OVX) rats; experiment: Bone biomechanical tests (lumbar vertebrae compression, femoral neck cantilever bending) in OVX rats; type: in vivo, female Sprague-Dawley rats; conditions: 3.2 mg/kg BID s.c., 6 weeks
Method: (§1) Effects on bone of three doses of HBD1 (3-11) with stearic acid at the N-terminus (C18:0) analog were tested in vivo in ovariectomized (OVX) rats, a recognized model for human osteoporosis, in particular postmenopausal osteoporosis. Each group included ten female Sprague-Dawley rats that were four months of age at the beginning of the in-life phase of the study. Treatment started six weeks after OVX surgery and lasted for six additional weeks. Groups were randomized before surgery according to body weight and tibial metaphysis Bone Mineral Density (BMD) as measured by peripheral quantitative computed tomography (pQCT) from Norland Stratec XCT Research SA equipment (Norland Stratec Medizintechnik, Birkenfeld, Germany).
(§2) The peptide was reconstituted in saline solution (0.9% NaCl) and administered subcutaneously twice a day at the doses of 0.8 mg/kg (low), 1.6 mg/kg (med) or 3.2 mg/kg (high) in a volume of 1 mL/kg. The control group was administered twice a day with saline by s.c. administration. Rats were weighed once a week and the volume of dosing solution administered was adjusted accordingly.
Bone biomechanical properties were determined by compression test using Instron 3343 biomechanical testing system (Instron, Norwood, Mass., USA). […]

[2] = Pharmacokinetics of acylated analogs in male Sprague Dawley rats after subcutaneous injection (Example 11); type: in vivo; conditions: sc, rat
Method: The peptides were reconstituted in saline (0.9% NaCl). Three male Sprague Dawley rats (approximately 6 weeks of age) were used per group. Subcutaneous doses were administered into the right flank of each animal […]. Following dosing, serial whole blood samples (ca. 0.3 mL) were collected from retro-orbital sinus into K2EDTA treated containers. Following each blood sample collection, samples were placed into a cooling block at 4° C. Samples were collected prior to dosing then at 15 and 30 minutes then 1, 2, 4, 6, 8 and 24 hours post dose for subcutaneous injection. Blood samples were centrifuged at 3500×rpm for 10 minutes at 4° C. and resultant plasma aspirated off into clean fully, labelled tubes. Plasma samples were snap frozen following aspiration then stored at −80° C. The peptides were extracted with acetonitrile:water (75:25, v/v) and analyzed using developed LC-MS/MS methods as described in Example 9. The limits of detection of these methods are 0.003 nmol/mL for HBD1 (1-13) with palmitic acid at the N-terminus (C16:0), 0.0008 nmol/mL for HBD1 (3-11) with palmitic acid at the N-terminus (C16:0), 0.0070 nmol/mL for HBD1 (3-11) with stearic acid at the N-terminus (C18:0), and 0.0015 nmol/mL for HBD1 (3-11) with myristic acid at the N-terminus (C14:0), HBD1 (3-11) with arachidic acid at the N-terminus (C20:0), HBD1 (3-11) with palmitic diacid at the N-terminus (C16:0-diacid), HBD1 (3-11) with palmitic acid at the C-terminus (C16:0). All values below these limits of quantification were considered as zero.

[3] = Pharmacokinetics in male Sprague Dawley rats after intravenous and subcutaneous injection (Example 10); type: in vivo; conditions: 1 μmol net peptide/kg, rat; for Tlast (last time point with detectable peptide): listed as HBD1 (3-11) with stearic acid at the N-terminus (C18:0)
Method: The peptides were reconstituted in saline (0.9% NaCl). Three male Sprague Dawley rats were used per group. Intravenous doses were administered into a lateral tail vein at the dose of 1 μmol net peptide/kg. Subcutaneous doses were administered into the right flank of each animal, also at the dose of 1 μmol net peptide/kg. Following dosing, serial whole blood samples (ca. 0.25 mL) were collected from a lateral tail vein into K2EDTA treated containers. Following each blood sample collection, samples were placed into a cooling block at 4° C. Samples were collected prior to dosing then at 2, 5, 15 and 30 minutes then 1, 2, 4, 6 and 8 and 24 hours post dose for intravenous injection and at 15 and 30 minutes then 1, 2, 4, 6, 8 and 24 hours post dose for subcutaneous injection.
Blood samples were centrifuged at 10000×g for 2 minutes at 4° C. and resultant plasma aspirated off into clean fully, labelled tubes. Plasma samples were snap frozen following aspiration then stored at −80° C. Peptides were extracted and analyzed as described in Example 9. The limits of quantification of these methods were 0.001 nmol/mL for cyclic HBD1 (3-11) and HBD1 (3-11) and 0.003 nmol/mL for HBD1 (1-13). All values below these limits of quantification were considered as zero.

[4] = Pharmacokinetics in Göttingen minipigs after intravenous and subcutaneous injection (Example 12); type: in vivo; conditions: minipig; for Cmax: read-out: maximum concentrations (Cmax), mean; for AUC(0-t): read-out: mean total exposure (AUC0-t); for Tmax: read-out: times post dose for maximum concentration (Tmax), median
Method: The peptide was reconstituted in saline (0.9% NaCl). Three Göttingen minipigs (approximately 8-10 months of age) were used per group. Intravenous doses were administered into an ear vein at the dose of 0.5 μmol net peptide/kg. Subcutaneous doses were administered into the right flank of each animal, also at the dose of 0.5 μmol net peptide/kg. Following dosing, serial whole blood samples (ca. 0.25 mL) were collected from a jugular vein into K2EDTA treated containers. Following each blood sample collection, samples were placed into a cooling block at 4° C. Samples were collected prior to dosing then at 5 and 30 minutes then 1, 2, 4, 8, 25, 48, 72 and 96 hours post dose for intravenous injection and at 15 and 30 minutes then 1, 2, 4, 8, 25, 48, 72 and 96 hours post dose for subcutaneous injection.
Blood samples were centrifuged at 10000×g for 2 minutes at 4° C. and resultant plasma aspirated off into clean fully, labelled tubes. Plasma samples were snap frozen following aspiration then stored at −80° C. Peptide extraction and analysis were performed as described in Example 9. The limit of quantification of this method is 0.0015 nmol/mL. All values below this limit of quantification are considered as zero.

[5] = tested on: ovariectomized (OVX) rats; experiment: Bone μCT of proximal tibia in ovariectomized (OVX) rats after 6-week treatment; type: in vivo, female Sprague-Dawley rats; conditions: 0.8, 1.6 or 3.2 mg/kg s.c. twice a day, 6 weeks; dose-dependent
Method: as §1, §2
High-resolution micro-computed tomography (μCT) measurements using SkyScan 1072 or 1172 High Resolution Scanner (Bruker microCT, Kontich, Belgium) were performed ex vivo in right proximal tibia at the end of the treatment period for measuring bone volume, bone cross-sectional dimensions and bone microarchitecture. FIGS. 5A, 5B and 5C show the percent increase from OVX animals HBD1 (3-11) with stearic acid at the N-terminus (C18:0) groups for following selected parameters: Bone Volume Fraction (BV/TV; %), Trabecular number (Tb.N; mm^−1) and Connectivity Density (Conn.D; mm^−3).

[6] = male, Sprague Dawley, plasma, iv
[7] = male, Sprague Dawley, plasma, sc
[8] = Göttingen, plasma, 0.5 umol/kg, iv, 0.5 μmol/kg
[9] = Göttingen, plasma, 0.5 umol/kg, sc, 0.5 μmol/kg

CCCCCCCCCCCCCCCCCC(=O)N[C@@H](Cc1c[nH]cn1)C(=O)N[C@@H](CC(C)C)C(=O)NCC(=O)N[C@@H](CC(C)C)C(=O)N[C@@H](CCC(=O)O)C(=O)N[C@@H](CCC(=O)O)C(=O)N1CCC[C@H]1C(=O)N[C@@H](CCCCN)C(=O)N[C@@H](CCCCN)C(=O)O [SEQ ID NO: 73, C18:0-HLGLEEPKK] (Stearoyl-HLGLEEPKK-OH; C-terminus assumed)
biomechanical properties of femoral neck (load at break point) [1]: improved | biomechanical properties of lumbar vertebrae (maximal load, energy absorption at maximal load, stress at maximal load) [1]: improved | peptide exposure compared among acylated peptides (in words) [2]: higher peptide exposure | Tlast (last time point with detectable peptide) ([3]; iv): 8 h | bioavailability ([3]; male, Sprague Dawley, plasma, subcutaneous, sc vs iv, read-out: F (bioavailability)): 52% | AUC(0-t) [3, 6]: 9.28 µM·h | Cmax [3, 6]: 10.2 µM | Tmax [3, 6]: 0.033 h | AUC(0-t) [3, 7]: 4.81 µM·h | Cmax [3, 7]: 0.54 µM | Tmax [3, 7]: 4 h | Tlast (last time point with detectable peptide) ([3]; sc): 8 h | Cmax [4, 8]: 6.27 µM | AUC(0-t) [4, 8]: 3.75 µM·h | Tmax [4, 8]: 0.083 h | Cmax [4, 9]: 0.29 µM | AUC(0-t) [4, 9]: 3.07 µM·h | Tmax [4, 9]: 4 h | bioavailability ([4]; Göttingen, plasma, sc, 0.5 umol/kg, read-out: mean calculated subcutaneous bioavailability relative to i.v.): 83.1% | exposure duration after subcutaneous administration ([4]; sc, 0.5 μmol/kg): up to 25 hours | Bone Volume Fraction (BV/TV) at tibial metaphysis vs OVX vehicle [5]: increased | Connectivity Density (Conn.D) at tibial metaphysis vs OVX vehicle [5]: increased | Trabecular number (Tb.N) at tibial metaphysis vs OVX vehicle [5]: increased
